Assay results: PubChem BioAssay AID1996
Values after ≈ are worked out from the molar mass of the structure shown.

Details: buffer; pH 7.4; 200.0 µM

| SMILES | solubility kinetic [µg/mL] |
| --- | --- |
| CCN1CSC(=S)N(Cc2ccccc2)C1 | 37.5 (≈ 149 µM) |
| C=CCOc1ccc(C(=O)n2cc(C(=O)OC)c3ccccc32)cc1 | < 0.7 |
| Cc1cccc(NC(=O)CCCN2C(=O)C3CC=CCC3C2=O)c1 (centres undefined) | > 49 |
| COc1ccccc1OCC(=O)NCCCN1CCOCC1 | 36.1 (≈ 117 µM) |
| Nc1sc2c(c1C(=O)NC1CC1)CCCC2 | 31 (≈ 131 µM) |
| Cc1cc(C)nc(SC/C=C/c2ccccc2)n1.Cl | 5.4 |
| CN(C)c1ccc(/C=C/C(=O)c2ccc(O)cc2)cc1[N+](=O)[O-] | 1.2 (≈ 3.84 µM) |
| O=C(O)C(=O)O.c1ccc(COc2cccc(CN3CCCCC3)c2)cc1 | 46.2 |
| CS(=O)(=O)Nc1cccc(-c2cn3c(n2)SCC3)c1 | 40 (≈ 135 µM) |
| CC(=O)c1ccc(NC(=S)Nc2cccc(Cl)c2C)cc1 | 40.7 (≈ 128 µM) |
| O=C(NCCc1ccccc1)c1ccc2[nH]c(=O)c(=O)[nH]c2c1 | > 46.4 |
| COc1ccc(C(OC(=O)c2ccco2)C(=O)NC2CCCC2)cc1 (centres undefined) | 3.4 (≈ 9.9 µM) |
| COc1ccc(CCNC(=O)C(=O)NCc2ccccn2)cc1 | > 47 |
| C#Cc1ccc(C(=O)NCc2ccc(N3CCCC3=O)cc2)cc1 | 14.6 (≈ 45.9 µM) |
| O=C1CC(C(=O)N2CCN(c3ccccc3)CC2)CN1Cc1ccccc1 (centres undefined) | > 54.5 |
| CCC1CCc2sc(C(=O)NCC3CCCO3)cc2C1 (centres undefined) | 42.3 (≈ 144 µM) |
| Cc1ccc(OCc2ccc(C(=O)Nc3cc(C)on3)o2)c([N+](=O)[O-])c1 | 1.4 (≈ 3.92 µM) |
| CCOC(=O)c1[nH]cnc1C(=O)Nc1ccccc1 | 11.4 (≈ 44 µM) |
| O=C(N/C(=C/c1cccc([N+](=O)[O-])c1)C(=O)N1CCCC1)c1ccccc1 | 51.9 (≈ 142 µM) |
| CCOc1ccc(-n2c([O-])cc(=O)[nH]c2=O)cc1.[NH4+] | 35.2 |
| COc1ccccc1NC(=O)c1cc(OC)c(OC)cc1[N+](=O)[O-] | > 49.8 |
| Nc1cccc(C(=O)O)c1 | > 20.6 |
| COc1ccc(C2Nc3ccccc3C(=O)N2NC(C)=O)cc1OC (centres undefined) | > 51.2 |
| COc1ccc(/C=C/C(=O)OCC(=O)N2CCCC2)c(OC)c1 | > 47.9 |

| SMILES | solubility kinetic [µg/mL] |
| --- | --- |
| COc1cccc(CN2C(=O)C(C)Oc3ccccc32)c1 (centres undefined) | 26.5 (≈ 93.5 µM) |
| CCNC(=O)COC(=O)CCNC(=O)c1cccc(C)c1 | 35.1 (≈ 120 µM) |
| O=C(Nc1cccc(F)c1)C1CCN(C(=O)NCc2ccccc2)CC1 | 9.2 (≈ 25.9 µM) |
| Cn1c(SCC(=O)NC2CCCCC2)nnc1-c1ccccc1F | > 52.3 |
| CN1CCN(CC(C)(C)NS(=O)(=O)c2ccccc2)CC1 | > 46.7 |
| C1N2CN3CN1CN(C2)C3 | > 21 |
| COc1cc(C(=O)Nc2ccc(C)cn2)c([N+](=O)[O-])cc1OC | > 47.6 |
| CSc1ccc(Cl)c(C(=O)Nc2nccs2)c1 | 2.8 (≈ 9.83 µM) |
| Cc1cc(C(=O)NCCN2CCOCC2)c2ccccc2n1 | > 44.9 |
| CC1Nc2ccc(C(=O)NC3CCCCC3)cc2NC1=O (centres undefined) | 19.2 (≈ 66.8 µM) |
| CC1(C(=O)N2CCN(C(=O)c3ccco3)CC2)CC1(Br)Br (centres undefined) | > 63 |
| COC(=O)c1cn(C(=O)c2cccc(C)c2)c2ccccc12 | 3.9 (≈ 13.3 µM) |
| O=C(NCCNC(=O)c1ccccn1)c1cccc(F)c1 | 41.7 (≈ 145 µM) |
| Cc1c(-c2ccccc2)[n+](=O)c2c(n1[O-])CCCC2 | > 38.4 |
| Cc1nnc(N(C)C(=O)c2ccc3c(c2)OCO3)s1 | > 41.6 |
| Cc1ccc(Cl)cc1NC(=O)CCCN1C(=O)c2cccnc2C1=O | > 53.7 |
| CCN(Cc1ccncc1)Cc1ccc(OC)cc1OC.O=C(O)C(=O)O | 43.5 |
| CCN(CC(=O)NCCC1=CCCCC1)S(=O)(=O)c1ccccc1 | > 52.6 |
| CCC1CC(C(=O)Nc2ccccc2)C(=O)O1 (centres undefined) | > 35 |
| COc1ccccc1Nc1ncnc2sccc12 | 30.1 (≈ 117 µM) |
| Cc1cc(Cl)ccc1-n1c(-c2cccnc2)n[nH]c1=S | > 45.4 |
| Cc1cc(C)cc(OCc2nc(-c3cccnc3)no2)c1 | 13.3 (≈ 47.3 µM) |
| CCc1nc2oc3ccccc3c(=O)c2c(=O)n1-c1ccc(C)cc1 | 44.2 (≈ 133 µM) |
| COc1cc2c(cc1OC)C(c1cc([N+](=O)[O-])ccc1O)NCC2 (centres undefined) | > 49.6 |

| SMILES | solubility kinetic [µg/mL] |
| --- | --- |
| O=C(CSc1ncccn1)Nc1ccc2c(c1)CCC2 | 37.9 (≈ 133 µM) |
| CC(C)n1cc(/C(N)=N/O)c(=O)n(Cc2ccccc2)c1=O | > 45.3 |
| Cc1ccc(O)c(CNc2cccc3cccnc23)c1 | 2.9 (≈ 11 µM) |
| O=C(Nc1ccc2ccccc2n1)C1CCCCC1 | 26.6 (≈ 105 µM) |
| CC1CCCCC1NC(=O)Cn1c(=O)cnc2ccccc21 (centres undefined) | 5 (≈ 16.7 µM) |
| O=C(Nc1cccc(-c2cn3cccnc3n2)c1)Nc1ccccc1F | 1.7 (≈ 4.89 µM) |
| Cc1ccc(NC(=S)Nc2cccc(-c3n[nH]c(=S)o3)c2)cc1 | > 51.4 |
| COc1cccc(C(=O)Nc2ccc(NC(=O)Cc3ccccc3)cc2)c1 | < 0.4 |
| COc1ccc(CCn2cnc3c([nH]c4ccccc43)c2=O)cc1 | < 0.2 |
| O=C(Nc1ccc([N+](=O)[O-])cc1)N1CCc2ccccc2C1 | 22 (≈ 74 µM) |
| CC1(C)c2cc(O)ccc2OC1N1CCOCC1 (centres undefined) | > 37.4 |
| O=C1NC2(CCCCC2)C(=O)N1c1ccc(Cl)cc1 | 3.8 (≈ 13.6 µM) |
| Cc1ccc(NC(=O)CC2CCCC2)c(Br)c1 | 2.4 (≈ 8.1 µM) |
| CCOc1ccc2oc(C(=O)N3CC(C)OC(C)C3)c(C)c2c1 (centres undefined) | 41.6 (≈ 131 µM) |
| CC1CCc2[nH]c3ccc(C(=O)O)cc3c2C1 (centres undefined) | > 34.4 |
| Cn1c(N)c(C(=O)COC(=O)/C=C/c2ccccc2F)c(=O)n(C)c1=O | 5.5 (≈ 15.2 µM) |
| Cc1c(-c2nc(-c3ccncc3)no2)cccc1[N+](=O)[O-] | 1.7 (≈ 6.02 µM) |
| COc1ccc(/C=C/C(=O)NCCSCc2ccco2)cc1OC | 41.9 (≈ 121 µM) |
| COc1cccc(-c2nc(N)nc(SC)c2C#N)c1 | 0.6 (≈ 2.2 µM) |
| CCOc1ccc(S(=O)(=O)/N=C(/Nc2ccc(S(N)(=O)=O)cc2)c2ccccc2)cc1 | 2.2 (≈ 4.79 µM) |
| CC(=O)Nc1ccc(NC(=O)C2c3ccccc3Oc3ccccc32)cc1 | 1.1 (≈ 3.07 µM) |
| O=C(Nc1nc2ccccc2s1)c1ccccc1 | 3.1 (≈ 12.2 µM) |
| Cc1ccc(NC(=O)c2cnccn2)cc1S(=O)(=O)N1CCCCCC1 | 5.4 (≈ 14.4 µM) |
| O=C(Nc1ccc(Cl)cc1)c1ccc(Br)cc1F | < 0.7 |

| SMILES | solubility kinetic [µg/mL] |
| --- | --- |
| CC(Oc1ccc([N+](=O)[O-])cc1)C(=O)NCC1CCCO1 (centres undefined) | > 44.1 |
| Cc1cc(C(=O)Nc2nncs2)oc1C | > 33.5 |
| COc1ccccc1C(=O)NCCCNC(=O)c1ccccn1 | > 47 |
| O/N=C1\CCCc2c1nc(-c1ccccc1F)n2O | > 39.2 |
| Cl.OC1(C#CCN2CCCC2)CCCCC1 | 34.2 |
| Cc1cnc(C(=O)OCC(=O)Nc2ccccc2[N+](=O)[O-])cn1 | > 47.4 |
| Cc1ccc(S(=O)(=O)Nc2nc3ccc(N)cc3s2)cc1 | 45.8 (≈ 143 µM) |
| NC(=O)C1CCN(C(=O)COc2ccc3c(c2)oc(=O)c2ccccc23)CC1 | 10.8 (≈ 28.4 µM) |
| CCCN(CCC)S(=O)(=O)c1nc2nc(C)cc(C)n2n1 | > 46.7 |
| COc1ccc(-c2csc(NC(=O)c3ccoc3C)n2)cc1 | < 0.3 |
| Cc1ccc(C)c(NC(=O)CN2C(=O)NC(CCc3ccccc3)C2=O)c1 (centres undefined) | 2.5 (≈ 6.84 µM) |
| Nc1nc(Cl)c(C=O)c(N2CCCCC2)n1 | 34.6 (≈ 144 µM) |
| CCOc1ncccc1C(=O)NCCc1ccc(Cl)cc1 | 33.7 (≈ 111 µM) |
| CC(=O)NCCc1nc2cc(NC(=O)c3ccc(Cl)cc3)ccc2n1C | 35.7 (≈ 96.3 µM) |
| CC1=CC(C)(C)NC(=S)N1c1ccc(C)cc1C | 2.1 (≈ 8.06 µM) |
| CCc1ccc(NC(=O)N[C@H](C(=O)O)C(C)CC)cc1 (some centres undefined) | > 41.8 |
| CC(OC(=O)CC1CCCCC1)C(=O)Nc1cccc(C#N)c1 (centres undefined) | 37.1 (≈ 118 µM) |
| O=C(CCCc1c[nH]c2ccccc12)NCc1ccccc1F | 34.5 (≈ 111 µM) |
| COc1ccc(-c2csc3nc(-c4ccccc4F)oc(=O)c23)cc1 | < 0.8 |
| Cc1cc(C(=O)O/N=C(\N)c2ccc(C(C)(C)C)cc2)no1 | 2.9 (≈ 9.62 µM) |
| CSc1nnc(C)c(=O)n1COC(=O)c1ccccc1 | > 43.7 |
| CCCNC(=S)N1CCC(NC(=O)c2ccc(C)cc2)CC1 | 7.5 (≈ 23.5 µM) |
| COc1ccc(C(=O)NCCc2ccc(F)cc2)cc1OC | > 45.5 |
| O=C(O)c1cccnc1SCC(=O)C12CC3CC(CC(C3)C1)C2 | > 49.7 |

| SMILES | solubility kinetic [µg/mL] |
| --- | --- |
| Nc1nc(-c2cc(-c3ccccc3)no2)cs1 | 4.4 (≈ 18.1 µM) |
| O=C(NCc1ccccc1)NC(=O)c1ccc(Cl)cc1 | < 0.3 |
| Cn1c(N)c(C(=O)COC(=O)/C=C/c2ccc(Cl)cc2Cl)c(=O)n(C)c1=O | 2.9 (≈ 7.03 µM) |
| COC(=O)Nc1ccc(S(=O)(=O)Nc2cnc3ccccc3n2)cc1 | > 53.8 |
| O=C(CN1C(=O)C(=O)N(Cc2ccco2)C1=O)NC1CCCCC1 | 45.8 (≈ 137 µM) |
| COc1ccc(NC(=O)CCC(=O)N2CCCC2)c([N+](=O)[O-])c1 | > 48.2 |
| O=C(C1CCN(S(=O)(=O)c2cccs2)CC1)N1CCCCC1 | > 51.4 |
| NC(=O)CC(c1ccccc1)c1ccc2c(c1)OCO2 (centres undefined) | 39.9 (≈ 148 µM) |
| Cc1cc(NC(=O)c2ccc(Cl)cc2Cl)no1 | 3.5 (≈ 12.9 µM) |
| CC(C(=O)N(C)C1CCCCC1)N1CCC(C(N)=O)CC1 (centres undefined) | 43.1 (≈ 146 µM) |
| CCOc1ccc(N2C(=O)NC(=O)/C(=C\c3ccccc3[N+](=O)[O-])C2=O)cc1 | > 57.2 |
| O=S(=O)(c1ccccc1)c1nc(-c2ccccc2)oc1N1CCOCC1 | 1.2 (≈ 3.24 µM) |
| O=C(COc1ccc(Br)cc1)N1CCNC1=O | > 44.9 |
| O=C(Nc1ccc(Cl)c([N+](=O)[O-])c1)c1ccco1 | 10.6 (≈ 39.8 µM) |
| COc1cccc(Oc2nc(-c3ccccc3O)nc3ccccc23)c1 | < 0.4 |
| COc1ccc(C2(C(=O)Nc3ccc(C)cc3)CCOCC2)cc1 | > 48.8 |
| CCN1CCN(S(=O)(=O)c2ccc(OC)c3ccccc23)CC1 | 29.2 (≈ 87.3 µM) |
| Clc1ccc(-c2nc(N3CCOCC3)nc3ccccc23)cc1 | < 0.2 |
| COc1cccc(NC(=S)N2CCC(c3ccc(C)cc3)C2)c1 (centres undefined) | 6.9 (≈ 21.1 µM) |
| CC(=O)c1ccc(NC(=O)C(C)NCc2ccccc2Cl)cc1 (centres undefined) | 38.3 (≈ 116 µM) |
| CC(=O)NC(CC(=O)N(C)C1CCCCC1)c1ccccc1 (centres undefined) | > 45.4 |
| O=C(Nc1ccccc1N1CCN(C(=O)c2ccccc2)CC1)c1ccco1 | > 56.3 |
| CN(Cc1cccnc1)C(=O)CCCc1c[nH]c2ccccc12 | 44.5 (≈ 145 µM) |
